# Assay results: publication PMC4774911, “Biochemical Screening of Five Protein Kinases from Plasmodium falciparum against 14,000 Cell-Active Compounds” (PLoS ONE, 2016)
# Read-outs that look alike come from different tables or passages of the source.
# Columns and labels:
# 3D7 PFLDH [1] = test system: 3D7 PFLDH; set-up: method as in ChEMBL; settings: ref ChEMBL; cited from earlier work
# TAOK1 = TAOK1 (Homo sapiens, UniProt Q7L7X3); assay: biochemical
# PRKCI = PRKCI (Homo sapiens, UniProt P41743); assay: biochemical
# ARAF = ARAF (Homo sapiens, UniProt P10398); assay: biochemical
# RPS6KB1 = RPS6KB1 (Homo sapiens, UniProt P23443); assay: biochemical
# 3D7 PFLDH [2] = test system: 3D7 PFLDH; set-up: method as in F.J. Gamo et al., Nature 2010; settings: downloaded from ChEMBL ref F.J. Gamo et al., Nature 2010; cited from earlier work
# HIPK1 = HIPK1 (Homo sapiens, UniProt Q86Z02); assay: biochemical
# ILK = ILK (Homo sapiens, UniProt Q13418); assay: biochemical
# HIPK2 = HIPK2 (Homo sapiens, UniProt Q9H2X6); assay: biochemical
# LRRK2 = LRRK2 (Homo sapiens, UniProt Q5S007); assay: biochemical
# TNK2 = TNK2 (Homo sapiens, UniProt Q07912); assay: Kinobead competition assay in K562 extract: TNK2
# Protocol: Kinobeads were prepared as described [25, 26]. […] Briefly, Kinobeads were washed and equilibrated in lysis buffer (50 mM Tris-Cl, pH 7.4, 0.4% Igepal-CA630, 1.5 mM MgCl2, 5% Glycerol, 150 mM NaCl, 25 mM NaF, 1 mM Na3VO4, 1 mM DTT, and 1 complete EDTA-free protease inhibitor tablet (Roche) per 25 ml). […] Digestion, labeling with TMT isobaric mass tags, peptide fractionation, and mass spectrometric analyses were performed essentially as described [27]. Criteria for protein quantification were: a minimum of 2 sequence assignments matching to unique peptides was required (FDR for quantified proteins <<0.1%), Mascot ion score > 15, signal to background ratio of the precursor ion > 4, signal to interference > 0.5 [28]. Reporter ion intensities were multiplied by ion accumulation time, yielding an area value proportional to the number of reporter ions present in the mass analyzer. Peptide fold changes were corrected for isotope purity as described and adjusted for interference caused by co-eluting nearly isobaric peaks as estimated by the signal-to-interference measure [29]. Protein quantification was achieved using a sum-based bootstrap algorithm [30]. Apparent dissociation constants were determined by taking into account the protein depletion by the beads as described [27].
# Kinobeads were incubated with K562 cell extract either in the presence of vehicle (DMSO) or TCAMS compound, respectively (20 μM-0.03 μM). Protein kinases captured by the beads (140–150 kinases per experiment) were quantified following tryptic digestion, isobaric peptide tagging, and LC-MS/MS analysis. Kinases were identified as potential targets by virtue of their reduced capture in the presence of excess TCAMS compounds. Apparent dissociation constants (Kd’s) were calculated from the extent to which capture of each kinase was reduced at each compound concentration.
# ABL1 [3] = target: ABL1 (Homo sapiens, UniProt P00519)
# [4] = target: T1, Plasmodium falciparum calcium-dependent protein kinase 4 (CDPK4) (Plasmodium falciparum, UniProt Q8IBS5); assay: CDPK4 Kinase-Glo ATP-consumption screen and dose-response; format: biochemical; settings: hits below 1 uM
# T1 construct: 6-Histidine (N); made in house
# T1 sequence (Q8IBS5 1-528): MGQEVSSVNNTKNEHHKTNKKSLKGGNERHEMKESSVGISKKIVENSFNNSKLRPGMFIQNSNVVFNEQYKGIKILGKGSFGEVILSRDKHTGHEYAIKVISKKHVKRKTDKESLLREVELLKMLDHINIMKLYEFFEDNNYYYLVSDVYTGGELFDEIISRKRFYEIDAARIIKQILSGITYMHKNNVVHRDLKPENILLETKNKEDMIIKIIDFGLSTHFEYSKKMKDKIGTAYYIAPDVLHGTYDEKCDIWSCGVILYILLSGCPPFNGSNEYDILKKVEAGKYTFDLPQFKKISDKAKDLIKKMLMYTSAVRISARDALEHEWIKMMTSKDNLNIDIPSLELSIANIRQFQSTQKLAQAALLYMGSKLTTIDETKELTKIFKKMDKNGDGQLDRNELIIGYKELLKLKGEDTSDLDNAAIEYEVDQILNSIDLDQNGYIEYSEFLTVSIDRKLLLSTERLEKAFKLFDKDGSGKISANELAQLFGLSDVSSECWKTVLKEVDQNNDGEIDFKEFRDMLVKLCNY
# How it was run: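 Single-point testing used 1 μM final compound, then dose-response, against CDPK4 and CDPK1 with Syntide-2 (40 μM) as substrate. After 90 min, reactions were halted by 5 mM EGTA, and kinase activity was inferred from depleted ATP via Kinase-Glo luminescence.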
# MAPKAPK3 = MAPKAPK3 (Homo sapiens, UniProt Q16644); assay: biochemical
# BMX = BMX (Homo sapiens, UniProt P51813); assay: biochemical
# PRKACA = PRKACA (Homo sapiens, UniProt P17612); assay: biochemical
# STK38L = STK38L (Homo sapiens, UniProt Q9Y2H1); assay: biochemical
# PIK3C3 = PIK3C3 (Homo sapiens, UniProt Q8NEB9); assay: biochemical
# KIT = KIT (Homo sapiens, UniProt P10721); assay: biochemical
# LOC100128443 = assay: biochemical; set-up: species or system human, K562 (extract); replicate k of n = 2 (each experiment ID is one independent experiment; two experiment IDs per compound); settings: human; read-out: KDapp
# ABL1 [5] = assay: biochemical; set-up: species or system human, K562 (extract); replicate k of n = 2 (each experiment ID is one independent experiment; two experiment IDs per compound); settings: human; read-out: KDapp
# [6] = TNK2, K-562 extract, conc. series 20.0-0.0uM, channel assignment not given
# TNK2, sequence (Q07912 whole entry): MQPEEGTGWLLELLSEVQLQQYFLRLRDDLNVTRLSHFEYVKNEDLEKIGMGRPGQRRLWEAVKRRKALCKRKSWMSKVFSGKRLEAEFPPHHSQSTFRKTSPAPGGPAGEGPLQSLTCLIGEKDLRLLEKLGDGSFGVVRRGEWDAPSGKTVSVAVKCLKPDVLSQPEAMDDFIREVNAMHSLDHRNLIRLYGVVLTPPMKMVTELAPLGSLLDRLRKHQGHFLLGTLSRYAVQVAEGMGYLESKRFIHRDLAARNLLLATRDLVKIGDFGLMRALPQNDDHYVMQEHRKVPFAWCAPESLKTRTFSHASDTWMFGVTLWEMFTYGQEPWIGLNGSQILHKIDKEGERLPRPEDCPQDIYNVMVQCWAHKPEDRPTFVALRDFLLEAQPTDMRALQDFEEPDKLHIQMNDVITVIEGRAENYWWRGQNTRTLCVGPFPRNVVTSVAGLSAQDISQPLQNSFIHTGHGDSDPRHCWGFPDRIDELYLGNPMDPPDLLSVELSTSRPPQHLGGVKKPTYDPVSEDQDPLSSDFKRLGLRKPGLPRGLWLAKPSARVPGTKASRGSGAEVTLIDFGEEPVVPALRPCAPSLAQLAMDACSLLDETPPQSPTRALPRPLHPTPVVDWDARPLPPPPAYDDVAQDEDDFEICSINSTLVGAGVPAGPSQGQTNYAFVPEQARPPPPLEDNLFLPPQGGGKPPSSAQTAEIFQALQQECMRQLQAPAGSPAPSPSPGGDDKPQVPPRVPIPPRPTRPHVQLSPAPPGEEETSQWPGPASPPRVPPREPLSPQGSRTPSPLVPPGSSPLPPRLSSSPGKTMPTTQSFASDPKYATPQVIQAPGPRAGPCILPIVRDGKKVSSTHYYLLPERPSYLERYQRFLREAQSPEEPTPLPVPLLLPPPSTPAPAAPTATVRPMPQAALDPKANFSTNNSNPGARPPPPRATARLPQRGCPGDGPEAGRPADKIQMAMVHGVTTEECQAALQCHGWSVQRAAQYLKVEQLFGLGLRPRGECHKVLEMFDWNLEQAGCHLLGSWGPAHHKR
# KIT, sequence (P10721 whole entry): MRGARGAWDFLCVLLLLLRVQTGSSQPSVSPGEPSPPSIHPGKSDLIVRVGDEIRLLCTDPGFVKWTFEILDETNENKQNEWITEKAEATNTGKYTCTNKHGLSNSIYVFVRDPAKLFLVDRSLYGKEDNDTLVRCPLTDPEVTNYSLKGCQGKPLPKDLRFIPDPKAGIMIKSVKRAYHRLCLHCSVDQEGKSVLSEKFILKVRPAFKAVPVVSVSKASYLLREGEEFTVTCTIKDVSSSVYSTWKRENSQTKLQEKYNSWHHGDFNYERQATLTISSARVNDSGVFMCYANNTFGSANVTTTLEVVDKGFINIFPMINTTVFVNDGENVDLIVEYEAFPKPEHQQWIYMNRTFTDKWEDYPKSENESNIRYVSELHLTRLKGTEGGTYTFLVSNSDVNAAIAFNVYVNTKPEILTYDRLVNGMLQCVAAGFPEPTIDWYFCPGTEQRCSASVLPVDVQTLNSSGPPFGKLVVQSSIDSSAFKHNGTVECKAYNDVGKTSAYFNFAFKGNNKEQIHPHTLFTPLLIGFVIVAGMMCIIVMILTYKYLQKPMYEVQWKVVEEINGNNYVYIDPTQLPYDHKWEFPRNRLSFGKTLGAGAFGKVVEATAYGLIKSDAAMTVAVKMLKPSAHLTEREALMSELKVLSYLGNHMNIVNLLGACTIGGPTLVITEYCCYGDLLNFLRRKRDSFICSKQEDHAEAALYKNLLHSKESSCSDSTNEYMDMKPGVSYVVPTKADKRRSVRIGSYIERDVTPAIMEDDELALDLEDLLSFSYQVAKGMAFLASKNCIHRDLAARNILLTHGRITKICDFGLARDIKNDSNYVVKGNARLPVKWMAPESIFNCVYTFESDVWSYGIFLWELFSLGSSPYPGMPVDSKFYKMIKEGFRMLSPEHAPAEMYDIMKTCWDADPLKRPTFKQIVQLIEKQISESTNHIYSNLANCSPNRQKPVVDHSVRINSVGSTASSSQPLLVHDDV
# TAOK1, sequence (Q7L7X3 whole entry): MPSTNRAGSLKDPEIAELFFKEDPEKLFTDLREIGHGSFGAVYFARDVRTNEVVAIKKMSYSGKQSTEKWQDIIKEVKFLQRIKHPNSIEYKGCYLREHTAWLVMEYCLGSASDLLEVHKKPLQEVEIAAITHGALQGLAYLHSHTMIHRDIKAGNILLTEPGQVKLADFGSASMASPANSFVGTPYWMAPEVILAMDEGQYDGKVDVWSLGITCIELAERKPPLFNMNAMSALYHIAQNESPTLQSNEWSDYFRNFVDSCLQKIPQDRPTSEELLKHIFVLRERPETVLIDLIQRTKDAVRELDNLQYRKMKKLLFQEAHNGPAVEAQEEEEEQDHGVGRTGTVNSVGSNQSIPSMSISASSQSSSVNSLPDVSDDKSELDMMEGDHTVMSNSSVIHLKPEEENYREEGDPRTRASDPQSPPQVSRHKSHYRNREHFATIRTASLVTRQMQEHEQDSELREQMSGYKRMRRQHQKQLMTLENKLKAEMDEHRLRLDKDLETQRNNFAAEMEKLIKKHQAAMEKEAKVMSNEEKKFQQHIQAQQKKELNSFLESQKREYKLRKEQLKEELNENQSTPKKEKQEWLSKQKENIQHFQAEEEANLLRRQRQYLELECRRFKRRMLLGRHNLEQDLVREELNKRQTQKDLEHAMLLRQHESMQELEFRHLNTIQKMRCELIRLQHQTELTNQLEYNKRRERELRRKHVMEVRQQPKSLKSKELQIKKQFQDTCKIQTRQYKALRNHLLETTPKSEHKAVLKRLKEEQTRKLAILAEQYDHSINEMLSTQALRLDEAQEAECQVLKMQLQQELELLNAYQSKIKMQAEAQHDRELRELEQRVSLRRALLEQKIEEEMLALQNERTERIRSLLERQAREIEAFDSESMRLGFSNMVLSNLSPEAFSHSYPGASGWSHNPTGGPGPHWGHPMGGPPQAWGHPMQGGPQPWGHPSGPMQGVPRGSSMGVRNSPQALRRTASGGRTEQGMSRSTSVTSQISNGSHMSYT
# ARAF, sequence (P10398 whole entry): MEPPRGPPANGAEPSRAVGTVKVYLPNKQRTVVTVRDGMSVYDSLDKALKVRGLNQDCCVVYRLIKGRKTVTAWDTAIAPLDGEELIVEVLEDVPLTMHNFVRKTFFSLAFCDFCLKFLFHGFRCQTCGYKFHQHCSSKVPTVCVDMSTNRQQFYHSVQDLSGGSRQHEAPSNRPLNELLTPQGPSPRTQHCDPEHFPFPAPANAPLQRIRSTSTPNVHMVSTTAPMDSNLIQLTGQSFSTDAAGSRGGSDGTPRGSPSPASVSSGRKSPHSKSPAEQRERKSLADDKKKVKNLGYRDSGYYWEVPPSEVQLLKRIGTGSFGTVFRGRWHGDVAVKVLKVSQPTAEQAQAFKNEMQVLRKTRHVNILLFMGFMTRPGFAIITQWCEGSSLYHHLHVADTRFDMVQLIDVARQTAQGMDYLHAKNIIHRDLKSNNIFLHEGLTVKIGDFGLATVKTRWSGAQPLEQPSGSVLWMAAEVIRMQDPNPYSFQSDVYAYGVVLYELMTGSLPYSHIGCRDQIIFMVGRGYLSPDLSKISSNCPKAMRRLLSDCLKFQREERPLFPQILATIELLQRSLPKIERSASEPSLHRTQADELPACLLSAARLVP
# STK38L, sequence (Q9Y2H1 whole entry): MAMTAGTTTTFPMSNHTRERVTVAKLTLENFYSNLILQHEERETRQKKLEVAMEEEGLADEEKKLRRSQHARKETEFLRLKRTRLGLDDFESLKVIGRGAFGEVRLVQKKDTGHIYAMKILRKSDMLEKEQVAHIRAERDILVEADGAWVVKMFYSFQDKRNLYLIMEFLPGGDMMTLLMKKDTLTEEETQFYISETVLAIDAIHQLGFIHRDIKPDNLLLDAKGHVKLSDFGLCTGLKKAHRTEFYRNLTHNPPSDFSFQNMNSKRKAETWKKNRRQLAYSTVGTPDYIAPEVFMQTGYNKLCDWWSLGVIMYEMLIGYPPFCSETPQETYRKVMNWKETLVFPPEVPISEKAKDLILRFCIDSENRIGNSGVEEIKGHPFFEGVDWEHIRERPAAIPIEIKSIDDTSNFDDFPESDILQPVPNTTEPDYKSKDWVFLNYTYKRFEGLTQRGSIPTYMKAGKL
# BMX, sequence (P51813 whole entry): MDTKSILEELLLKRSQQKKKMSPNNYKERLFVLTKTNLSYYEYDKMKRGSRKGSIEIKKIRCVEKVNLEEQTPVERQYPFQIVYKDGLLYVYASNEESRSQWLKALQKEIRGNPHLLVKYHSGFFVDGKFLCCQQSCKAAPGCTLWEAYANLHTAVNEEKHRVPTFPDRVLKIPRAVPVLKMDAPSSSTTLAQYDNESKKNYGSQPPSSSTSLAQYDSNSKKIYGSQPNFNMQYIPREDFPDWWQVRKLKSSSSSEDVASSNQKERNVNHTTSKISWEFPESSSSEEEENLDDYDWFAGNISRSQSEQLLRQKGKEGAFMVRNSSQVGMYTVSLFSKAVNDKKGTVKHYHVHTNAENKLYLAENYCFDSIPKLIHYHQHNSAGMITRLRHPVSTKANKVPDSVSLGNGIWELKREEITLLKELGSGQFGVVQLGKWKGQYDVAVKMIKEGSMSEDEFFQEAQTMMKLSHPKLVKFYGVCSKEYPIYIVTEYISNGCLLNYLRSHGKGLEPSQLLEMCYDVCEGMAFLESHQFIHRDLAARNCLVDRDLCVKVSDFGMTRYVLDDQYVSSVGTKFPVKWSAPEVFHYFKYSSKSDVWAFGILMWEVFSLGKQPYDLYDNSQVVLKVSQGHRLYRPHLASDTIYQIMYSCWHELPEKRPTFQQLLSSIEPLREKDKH
smiles,measurement,setting,value
CN(C)CC(O)COc1ccc(Nc2ncc([N+](=O)[O-])c(Nc3ccccc3O)n2)cc1.O=C(O)C(F)(F)F (stereo not drawn) [TCMDC-141399],PCT_INHIB_3D7_PFLDH,3D7 PFLDH [1],0
same,IC50,TAOK1,6100 nM
same,IC50,PRKCI,> 20000 nM
same,IC50,ARAF,> 20000 nM
same,IC50,RPS6KB1,> 20000 nM
Cl.NCC1(c2nc(-c3ccc(Cl)c(O)c3)c(-c3ccncc3)[nH]2)CCCCC1 [TCMDC-141154],PCT_INHIB_3D7_PFLDH,3D7 PFLDH [2],0
same,IC50,HIPK1,> 20000 nM
same,IC50,ILK,> 20000 nM
same,IC50,HIPK2,> 20000 nM
same,IC50,LRRK2,> 20000 nM
same,IC50,TNK2,> 20000 nM
same,abundance relative to vehicle TMT126,"TNK2; TNK2, K-562 extract, conc. series 20.0, 4.0, 0.8, 0.16, 0.032, 0.0uM, channel assignment not given",0.90
same,abundance relative to vehicle TMT127L,TNK2; [6],1.02
same,abundance relative to vehicle TMT128H,TNK2; [6],1.06
same,abundance relative to vehicle TMT129L,TNK2; [6],1.03
same,abundance relative to vehicle TMT130H,TNK2; [6],1.20
same,Hill,"TNK2; TNK2, kinobead competition curve",1
CN1CCN(c2ccc(Nc3ncc(C#N)c(Nc4ccccc4C(N)=O)n3)cc2)CC1.Cl [TCMDC-134116],IC50,ABL1 [3],130 nM
same,IC50,[4],188 nM
same,IC50,MAPKAPK3,> 20000 nM
same,IC50,BMX,620 nM
same,IC50,PRKACA,1500 nM
same,IC50,STK38L,600 nM
same,IC50,PIK3C3,1100 nM
same,IC50,KIT,1300 nM
same,Kd,LOC100128443,199 nM
same,Kd,ABL1 [5],58.6 nM
